Source: patent publication US20030144174A1, “METHODS FOR IDENTIFYING COMPOUNDS USEFUL FOR THE REGULATION OF BODY WEIGHT AND ASSOCIATED CONDITIONS” (priority 1998, published 2003)
“Also recorded” adds a separate entry of the source.

Legend:
Type in all cases: in vivo, mouse
[1] = tested on: POMC homozygous mutant female mice; test: Daily intraperitoneal α-MSH analog in POMC homozygous mutant mice: body weight, food intake, coat (Example 2)
Procedure: (§1) To test initially for the effect of peripheral melanocortins on weight change, we selected the stable agonist [Ac-Cys^4, D-Phe^7, Cys^10] α-MSH (4-13) (described in Cody et al., 1985, J. Med. Chem. 28, 583-588; incorporated herein by reference in its entirety). Briefly, [Ac-Cys^4,D-Phe^7, Cys^10] α-MSH (4-13) amide, having the cysteines connected by a disulfide bridge, was obtained from Peninsula Laboratories, CA. Lyophilized powder was dissolved in water at 1 mg/ml, which was diluted in PBS to 10 μg/mL. During the experiments, mice were maintained on a normal 12 h/12 h light/dark cycle with food and water ad libitum. Mice were fed standard laboratory rodent diet (#5001).
(§2) In order to see whether the α-MSH analog has an effect on food intake, we compared weight change and food intake in these mice for one week (see bars in FIGS. 4A and 4B) under MSH analog treatment and after MSH analog treatment was stopped (FIGS. 4C and 4D). During one week under MSH analog treatment mutant mice lost 0.5 g, while wildtype littermates gained 0.3 g; the food intake during this time was equivalent in both groups (20.7 g in wildtypes, and 22.7 g in mutants).
An effect of MSH could also be seen on coat pigmentation. […] Yellow coat pigmentation gradually reappeared after MSH treatment was terminated (data not shown).

[2] = tested on: wildtype female mice; test: Daily intraperitoneal α-MSH analog in wildtype littermates: body weight, food intake (Example 2); details: for weight loss in wildtype littermates: 1 microgram i.p. daily, 16-day treatment
Procedure: as §1, §2

[3] = tested on: POMC null mutant mice; test: Weight change and food intake by diet and MSH analog treatment, POMC null mutant mice (Example 3, Table 1)
Procedure: (§3) P values were determined by ANOVA. If the major component of weight regulation through the melanocortinergic pathway was the regulation of feeding behavior, the observed changes in body weight in POMC null mutant mice should be paralleled by a similar pattern in food uptake. This, however, was not observed (FIGS. 5B and 5D and Table 1).

[4] = tested on: wildtype mice; test: Weight change and food intake by diet and MSH analog treatment, wildtype mice (Example 3, Table 1); details: MSH analog i.p. 1 or 2 μg once daily
Procedure: as §3

[5] = tested on: obese lep^ob/ob mice; test: Total weight change in obese lep ob/ob mice given leptin, α-MSH analog or both (Example 4, FIG. 6); details: 3 μg of each compound i.p. once daily; lep ob/ob mice aged 2 months; compared to untreated controls
Procedure: To assess a more general effect of peripheral melanocortin on adipocytes, another genetic form of obesity, in lep^ob/ob mice, was treated with the α-MSH analog. In this experiment, the mice received leptin or the α-MSH analog alone, and in combination. Briefly, obese lep^ob/ob mice at age 2 months (2 per group) received daily either: (1) 3 μg of α-MSH analog (described in Examples 2 and 3 above); (2) 3 μg of recombinant mouse leptin; (3) 3 μg of α-MSH analog and 3 μg of recombinant mouse leptin in combination; or (4) saline. The compounds were delivered intraperitoneally once daily, 1-2 hours before the onset of darkness.

[6] = tested on: ob/ob mutants; test: Weight gain and food intake in ob/ob mutants given leptin, MSH analog or both (Example 5, FIGS. 8 and 9)
Procedure: Leptin deficient (ob/ob) mutants show both hyperphagia and “increased metabolic efficiency” as witnessed by their ability to gain weight even when pair-fed with normal congenic controls. To determine the effects of leptin and MSH on food intake and weight gain, four sets of ob/ob mutants were treated with leptin, an MSH analog, both together, or vehicle alone. The MSH analog [Ac-Cys^4, D-Phe^7, Cys^10] α-MSH (4-13) was purchased from Peninsula Laboratories (Belmont, Calif.). Mice were treated with daily injections of 7 micrograms of each, both or neither.

[7] = tested on: ob/ob mutants; test: Core temperature of ob/ob mutants exposed to 4° C. (Example 5, FIG. 10); details: 7 micrograms; 5 hours without food, then 4° C. for 65 minutes; versus vehicle treated ob/ob
Procedure: In 1977, the decreased ability of ob/ob mutants to maintain body temperature at 4° C. was noted. This preceded the onset of obesity in these mice. In view of the evidence that MSH regulates adipocyte metabolism, the present inventors hypothesized that the low levels of circulating MSH in leptin deficient (ob/ob) mutants was responsible for the impaired thermal regulation. To test this, ob/ob mutants were injected with 7 micrograms of MSH analog or vehicle only as described above. The mice were left without food for 5 hours and then exposed to 4° C. for 65 minutes. Their core temperatures were measured periodically by transfer to a coldroom (4° C.) where core temperatures were measured using a digital thermometer fitted with a rectal probe (Atkins Technical Inc., Gainesville, Fla.). […] As the mice had no opportunity to eat between injection of the MSH analog and the cold challenge, food intake cannot be responsible for the altered thermal regulation.

[8] = tested on: ob/ob mutant mice (C57BL/6J-Lep^ob); test: Circulating MSH levels by RIA in ob/ob mutants treated with leptin (Example 5, FIG. 7); details: leptin 7 microgram/day i.p., two hours after the tenth daily injection
Procedure: To test the inductive ability of leptin on circulating MSH levels, ob/ob mutants (ob/ob mutant mice (C57BL/6J-Lep^ob) and congenic controls were purchased from the Jackson Laboratory, Bar Harbor, Me.) were treated with leptin (7 microgram/day) or with vehicle alone (Murine recombinant leptin was kindly provided by Dr. A. F. Parlow through the National Hormone and Pituitary Program (NHPP); hormones were diluted to 70 micrograms per milliliter in PBS; mice were injected intraperitoneally with 0.1 mL). Two hours after the tenth daily injection, blood samples were drawn from the retro-orbital sinus and analyzed for MSH levels by RIA following the manufacturer's instructions (Peninsula Laboratories, Belmont, Calif.).

[9] = both genotypes on standard diet & MSH analog treatment
[10] = mutant mice, MSH analog i.p. 1 or 2 μg once daily
[11] = daily injections of 7 micrograms, ob/ob mutants

## [Ac-Cys^4, D-Phe^7, Cys^10] α-MSH (4-13) [MSH analog]
[1]; 1 microgram (~1 nmol) i.p. daily, mutant female mice, listed as MSH-agonist
  weight loss by 2 weeks: 46 % of excess weight
[1]; 1 microgram (~1 nmol) i.p. daily, mutant female mice, listed as stable α-MSH agonist
  weight loss by 2 weeks: over 40 % of excess weight
[1]; 1 microgram (~1 nmol) i.p. daily, mutant female mice, within one week
  weight loss within one week: 38 % of excess weight
[1]; after the 16-day treatment ended
  time until mutant mice started to gain weight after MSH injections were stopped: about 10 days
[1]; mice treated for two weeks
  coat pigmentation: lost their yellowish tinge
[1]; mutant mice, second week of treatment
  weight lost during one week under MSH analog treatment: 0.5 g
[1]; mutant mice, third week after termination
  weight gained in one week after MSH analog treatment had been stopped for two weeks: 1.7 g
[1]; mutants, second week of treatment
  food intake during one week under MSH analog treatment: 22.7 g
[1]; mutants, third week after termination
  food intake in one week after MSH analog treatment had been stopped for two weeks: 35.7 g
[2]; listed as MSH-agonist
  weight loss in wildtype littermates: no significant weight loss
[2]; listed as stable α-MSH agonist
  weight loss in wildtype littermates: did not lose significant weight
[2]; wildtype littermates, second week of treatment
  weight gained during one week under MSH analog treatment: 0.3 g
[2]; wildtype littermates, third week after termination
  weight gain in one week after MSH analog treatment had been stopped for two weeks: 0.3 g
[2]; wildtypes, second week of treatment
  food intake during one week under MSH analog treatment: 20.7 g
[2]; wildtypes, third week after termination
  food intake in one week after MSH analog treatment had been stopped for two weeks: 24.2 g
[3]; [9]
  food intake, wildtype v. mutant: ↑
  weight change, wildtype v. mutant: ↓
[3]; [10]
  food intake, standard diet v. standard diet & MSH analog treatment: decreases food intake and ↓
  weight change, standard diet v. standard diet & MSH analog treatment: lose excess weight and ↓
[4]
  food intake, standard diet v. standard diet & MSH analog treatment: decreases food intake and ↓
  weight change, standard diet v. standard diet & MSH analog treatment: completely capable of maintaining their body weight constant and ←→
[5]
  total weight change over a period of 10 days: slowed weight gain by almost half
[6]; MSH analog together with a leptin dose sufficient to induce normal MSH levels, ob/ob mice
  supplementing the weight reducing effect of leptin: inability of peripheral MSH analog to supplement the weight reducing effect
[6]; [11]
  effect on weight gain compared with effect on food intake: greater on weight gain than on food intake
  weight gain: effectively decreased weight gain; also recorded: decreases weight gain
[7]
  core temperature during exposure to 4° C.: maintained their core temperature much better; also recorded: increases thermal homeostasis

B1: leptin: recombinant mouse leptin, product of the ob gene; Example 5 material provided through the NHPP (protein, UniProt P41160 22-167, looked up)
Leptin: VPIQKVQDDTKTLIKTIVTRINDISHTQSVSAKQRVTGLDFIPGLHPILSLSKMDQTLAVYQQVLTSLPSQNVLQIANDLENLRDLLHLLAFSKSCSLPQTSGLQKPESLDGVLEASLYSTEVVALSRLQGSLQDILQQLDVSPEC
[5]
  total weight change over a period of 10 days: little effect on preventing further weight gain
[8]
  circulating MSH levels: approached those found in normal control mice; also recorded: induces almost normal levels of circulating MSH
[6]; [11]
  weight gain: effectively decreased weight gain
